Source: patent US20180371021A1, “PEPTIDOMIMETIC MACROCYCLES AND USES THEREOF” (Aileron Therapeutics, Inc., priority 2017, published 2018)
Several values for one entry are separate records, joined by “and”; a condition that tells them apart may be missing. Identical values can stand only once. Entries after “also recorded” stand apart in the source; their conditions may differ.

Key:
[1] = Phase 1 dose-escalation trial of AP1: safety and tolerability; type: in vivo, human
Text: 71 patients were enrolled in the dose-escalation trial. The trial used a “3+3” dose-escalation design.
Starting with dose level 4, patients who had cancers associated with HPV were excluded from enrollment because HPV is known to destroy WT p53.
FIG. 2 illustrates the dosing regiments (DRs) used in the “3+3” dose escalation trial.
Eight patients experienced dose reductions, including two patients who had been on study treatment for over 1 year, and another patient who had been on study treatment for 11 months. […] Both events were Grade 3 hypotension and were at the 3.1 mg/kg and the 4.4 mg/kg once-weekly dosing levels. […] Five patients discontinued treatment with AP1 due to these events.

[2] = tested on: human CD45 leukemic cells; test: Survival in an in vivo xenotransplantation model; design: species or system mice; conditions: for Long term survival, mice still alive: 130 days post start of treatment
Text: The median survival for group 1 and group 2 was 34 days and 83 days, respectively (p<0.0001).

A549 xenograft = A549 xenograft model, AP1 and palbociclib; type: in vivo, mice
Text: The arrows indicate spontaneous tumor shrinkage in vehicle controls. The arrows with * indicate poor growth of tumors late in the study.

[3] = tested on: MCF-7.1 human breast carcinoma xenograft; test: MCF-7.1 human breast carcinoma xenograft model, AP1 and palbociclib; type: in vivo, mice; conditions: AP1 20 mg/kg qwkx4, palbociclib 75 mg/kg qdx22
Experimental: Female athymic nude mice were provided with drinking water with 10 μg/mL with 17 beta estradiol supplementation 3 days prior to cell implantation and for the duration of the study. […] The mice were between 8-12 weeks of age at the beginning of the study. […] The group was not euthanized, and the mice were allowed to recover. […] Animals were monitored individually. […] Responders were followed for a longer period of time. When the endpoint was reached, the animals were euthanized. […] An aqueous phosphate-buffered saline solution or sodium lactate (50 mM, pH 4.0) solution was used as the vehicle.

[4] = tested on: Acute Myeloid Leukemia (AML) or Myelodysplastic Syndrome (MDS), expressing WT p53; test: Clinical study of AP1 alone or with cytarabine in AML or MDS; type: in vivo, human; conditions: evaluable patients with bone marrow biopsies before and after dosing
[5] = Phase 1 dose-escalation trial of AP1: pharmacokinetic profile; type: in vivo, human; conditions: patients, I.V. infusion
Text: Data were collected at different time points after the start of infusion (SOI) and the end of infusion (EOI).

MCF-7 cells = test: MCF-7 cell proliferation (WST-1 / CyQUANT), AP1 and CDK4/CDK6 inhibitors; type: cell-based, human; conditions: sequential treatment, 24 h pre-treatment
Experimental: The WST-1 variant of the MTT assay was used to measure cell viability. WST-1 is a cell-impermeable, sulfonated tetrazolium salt that can be used to examine cell viability without killing the cells. […] All media were supplemented with 10% (v/v) fetal calf serum, 100 units of penicillin, and 100 μg/mL of streptomycin at 37° C. and 5% CO2. Prior to dosing, MCF-7 cells were switched to serum-free medium and grown at 37° C. overnight. One day prior to assaying, the cells were trypsinized, counted, and seeded at pre-determined densities in 96-well plates as follows: MCF-7, 5000 cells/well/200 μL; MOLT-3, 30,000 cells/well/200 μL.
The concentration of ribociclib was kept constant.
The concentration of abemaciclib was kept constant.
Various MCF-7 cell numbers were plated and evaluated 3-7 days after plating to determine the optimal number of cells to be plated and to determine the treatment duration. […] MCF-7 cells were evaluated for viability using the WST-1 assay or the CyQUANT method 3-7 days or 120 h after beginning treatment.
The cells were evaluated for viability using the CyQUANT method after beginning the simultaneous treatments.
The cells were evaluated for viability using a WST-1 assay or MTT assay 3-7 days after beginning the treatments.
The data are expressed as log(CI).

[6] = tested on: peripheral T-Cell Lymphoma (PTCL); test: Phase 2a clinical trial with AP1 in peripheral T-cell lymphoma; type: in vivo, human
Experimental: Based on the results of the dose-escalation study and the complete response observed in a patient with PTCL, a Phase 2a clinical trial was conducted in patients with PTCL.

[7] = tested on: SJSA-1 osteosarcoma xenograft; test: SJSA-1 osteosarcoma xenograft model, AP1 and palbociclib; type: in vivo, mice; conditions: AP1 20 mg/kg qwkx4, palbociclib 75 mg/kg qdx22
Experimental: The group was not euthanized, and the mice were allowed to recover. […] Animals were monitored individually. […] Responders were followed for a longer period of time. When the endpoint was reached, the animals were euthanized. […] An aqueous phosphate-buffered saline solution or sodium lactate (50 mM, pH 4.0) solution was used as the vehicle.

[8] = tested on: advanced solid tumors or lymphomas expressing WT p53; test: Phase 1 dose-escalation trial of AP1: anti-tumor activity (RECIST / IWG); type: in vivo, human
Experimental: Anti-tumor activity was measured using Response Evaluation Criteria in Solid Tumors (RECIST) criteria for patients with solid tumors, and 2015 International Working Group (IWG) criteria for patients with lymphomas. The RECIST and IWG criteria enabled the objective evaluation of whether a tumor had progressed, stabilized, or decreased in size. Anti-tumor effects were also determined through physical examinations or clinically validated blood or serum tumor markers.
Anti-tumor activity was measured using RECIST criteria for patients with solid tumors and the IWG criteria for patients with lymphomas to objectively evaluate whether a tumor progressed, stabilized, or shrunk.
The percent change in tumor volume for each evaluable patient (i.e., having measurable disease by CT or PET-CT scan) is plotted from the highest to lowest value, or low to high response, and each bar of the histogram is colored by the best overall response measured for that patient per RECIST or IWG criteria.

MIC-1 = test: Phase 1 dose-escalation trial of AP1: plasma MIC-1 biomarker; type: in vivo, human; conditions: plasma MIC-1 after end of AP1 infusion
Experimental: Depending on the sample type, the PD biomarkers included measures of MDMX, MDM2, p21, p53, apoptosis, macrophage inhibitory cytokine 1, or MIC-1.
In the Phase 1 dose-escalation study, plasma MIC-1 levels were measured at several time points after initial infusion.

[9] = d22, calculated using vehicle median volumes on d0 and d22
[10] = three consecutive measurements > 150% of d1 volume

CC(=O)N[C@@H](CC(C)C)C(=O)N[C@H](C(=O)N[C@@H](Cc1ccccc1)C(=O)N[C@]1(C)CCCCCCC=CCCC[C@@](C)(C(=O)N[C@@H](C)C(=O)N[C@@H](C)C(=O)N[C@@H](C)C(=O)N[C@@H](C)C(=O)N[C@@H](C)C(=O)N[C@H](C)C(N)=O)NC(=O)[C@H](CC(C)C)NC(=O)[C@H](CCC(N)=O)NC(=O)[C@H](C)NC(=O)[C@H](Cc2c[nH]c3ccccc23)NC(=O)[C@H](Cc2ccc(O)cc2)NC(=O)[C@H](CCC(=O)O)NC1=O)[C@@H](C)O [AP1]
dose limiting toxicity (DLT) ([1]; 3.1 mg/kg once weekly dosing): One dose limiting toxicity (DLT) of Grade 3 fatigue | dose limiting toxicity (DLT) ([1]; […] once weekly): four DLTs (Grade 3 elevated alkaline phosphatase, Grade 3 hypotension, Grade 3 anemia, Grade 4 neutropenia) | patients with transient decreases in lymphocytes post-dosing and primarily Grade 1 and 2 abnormalities ([1]; full recovery within a few days): approximately 50% | MTD ([1]; human, in vivo, iv, dosed once a week by I.V. administration, patients): 3.1 mg/kg | tolerability as considered by the investigators ([1]; patients, dose escalation trial): generally well tolerated | most frequently reported drug-related events ([1]; reported by ≥10% of the patients): nausea, fatigue, vomiting, decreased appetite, anemia, headache, and constipation | Long term survival, mice still alive ([2]; group 2): 22% | Long term survival, mice still alive ([2]; group 3): 60% | median survival ([2]; group 2 (group 1: 34 days), p<0.0001): 83 days | overall survival ([2]; vs vehicle): doubled the overall survival | Median time to tumor volume > 500 mm^3 (A549 xenograft; A549 xenograft, AP1 20 mg/kg qwkx4): 25 days | Median tumor volume (mm^3) D1 (A549 xenograft; D1 (start of dosing), A549 xenograft, nude mice, AP1 20 mg/kg qwkx4, palbociclib 75 mg/kg qdx22): 126 mm^3 | Median tumor volume (mm^3) D22 (A549 xenograft; D22, A549 xenograft, nude mice, AP1 20 mg/kg qwkx4, palbociclib 75 mg/kg qdx22): 405 mm^3 | % TGI (±SEM) on d22 (end of dosing) (A549 xenograft; d22, calculated using vehicle median volumes on d0 and d22, AP1 20 mg/kg qwkx4, palbociclib 75 mg/kg qdx22): 42 (7) % | Animals with disease progression (A549 xenograft; three consecutive measurements > 150% of d1 volume, AP1 20 mg/kg qwkx4, palbociclib 75 mg/kg qdx22): 10/10 | animals have reached endpoint (A549 xenograft; tumor volume > 500 mm^3, A549 xenograft, AP1 20 mg/kg qwkx4, palbociclib 75 mg/kg qdx22): 8/10 animals | Median tumor volume (mm^3) D1 ([3]; D1 (start of dosing), MCF-7.1 xenograft, nude mice): 126 mm^3 | Median tumor volume (mm^3) D22 ([3]; D22, MCF-7.1 xenograft, nude mice): 473 mm^3 | Median time to tumor volume > 500 mm^3 ([3]; MCF-7.1 xenograft): 22 days | Median time to tumor volume > 1000 mm^3 ([3]; MCF-7.1 xenograft): 35 days | % TGI (±SEM) on d22 (end of dosing) [3, 9]: 30 (9) % | animals have reached endpoint ([3]; endpoint tumor volume > 1000 mm^3, MCF-7.1 xenograft): 10/10 animals | Animals with disease progression [3, 10]: 10/10 | patients who demonstrated stabilization of their disease [4]: 3 | maximum drug serum concentrations observed (Cmax) ([5]; all dose levels): dose-related increase | half-lives ([5]; higher dose levels): five and seven | MCF-7 cell growth (MCF-7 cells): suppressed MCF-7 cell growth with or without treatment with palbociclib | response of the first patient enrolled in the Phase 2 study in PTCL ([6]; after 2 cycles of treatment): partial response | Best overall response ([6]; seven PTCL patients on AP1 therapy, one line per patient (patient 1 from dose escalation)): ODP | Days on treatment ([6]; seven PTCL patients on AP1 therapy, one line per patient (patient 1 from dose escalation), Dose escalation study): 487 days | Days on treatment ([6]; seven PTCL patients on AP1 therapy, one line per patient (patient 1 from dose escalation), Phase 2a study): 32 days and 1 days and 122 days and 134 days and 66 days and 53 days | Median tumor volume (mm^3) D1 ([7]; D1 (start of dosing), SJSA-1 xenograft, nude mice): 117 mm^3 | Median tumor volume (mm^3) D22 ([7]; D22, SJSA-1 xenograft, nude mice): 2150 mm^3 | Median time to tumor volume > 1000 mm^3 ([7]; SJSA-1 xenograft): 16 days | Median time to tumor volume > 2000 mm^3 ([7]; SJSA-1 xenograft): 21 days | % TGI (±SEM) on d22 (end of dosing) [7, 9]: 17 (6) % | Animals with disease progression [7, 10]: 10/10 | responses with stabilization of tumor size (SDs) ([8]; 57 evaluable patients): 21 | stable diseased patients that exhibited tumor shrinkage ([8]; 57 evaluable patients): 7 | patient scans of the two CR patients ([8]; PTCL patient after six cycles, MCC patient after further treatment): the lymph node returned to its normal size; also recorded: showed no trace of cancer in the patient | max time a patient received AP1 ([8]; one patient): 613 days | doses achieving a maximal 24 hr MIC-1 increase above baseline (MIC-1): ≥ 2.1 mg/kg
